Assay results as given in patent publication US20210386792A1, “A METHOD FOR INCREASING POPULATION OF SPERMATOGONIAL STEM CELLS” (priority 2018, published 2021).

How the values were obtained:
TECs [1] = test: TECs proliferation and apoptosis assays; format: cell-based, mouse; settings: TECs in culture, busulfan 800 μM vs DMSO
Procedure: TECs Proliferation and Apoptosis Assays
5×10^3 testicular ECs per well were plated on 8-chamber slide (LabteK) coated with 0.1% gelatin. Busulfan (800 μM) or DMSO were added to each well 24 hours after seeding and cultured for 72 or 96 hours. 10 μM BrdU (BD Pharmingen™) was added to media 72 hours after busulfan treatment, then incubated for 2 hours. Samples were stained with anti-BrdU (1:50; Invitrogen), anti-γ-H2AX (1:400; Millipore) and anti-cleaved caspase 3 (1:400; Cell Signaling). BrdU^+ cells in 10 random high-powered fields were counted and statistics were analyzed using Graph Pad Prism. Each condition was performed in triplicate.

TECs [2] = test: Microvessel density (CD31 immunostaining) in testes sections from busulfan-treated mice; format: in vivo, mouse; settings: wild-type mice, 5 weeks after busulfan vs vehicle
Procedure: Testes were dissected from male mice were cryoprotected overnight in 20% (wt vol^−1) sucrose then frozen in OCT (Tissue-Tek). Testis sections (10 or 30 m) were blocked (5% normal goat serum and 0.1% bovine serum albumin in 0.1% PBS-T) for 1 hour and washed in 0.1% PBS-T. Primary antibodies: anti-CD31 rat-pAb (1:50; BD science, Cat: 550274), anti-PLZF rabbit-polyclonal Ab (1:50; Santa Cruz, Cat: 22839), anti-DDX4 rabbit pAb (1:200; Abcam, Cat: 13840), anti-Sox9 rabbit pAb (1:200; Millipore, Cat: ABE579), anti-GDNF rabbit polyclonal Ab (1:50; Santa Cruz, Cat: SC328) were diluted in blocking buffer and incubated for 2 hours at RT, then incubated with either anti-mouse Alexa 594 (1:1000, Thermo Fischer, Cat: A110323) or anti-rabbit Alexa 488 (1:1000, Thermo Fischer, Cat: A32723) at RT for 30 minutes. Sections were stained with for 1 min to detect nuclei. […] Digital images were analyzed for the area and density of endothelial cell markers, germline stem cell markers and GDNF by counting 5 random 20× fields per testis section.
Mice were sacrificed 5-6 weeks after Busulfan treatment and tissues were fixed in paraformaldehyde overnight and then embedded in paraffin. […] After all cross sectional areas were counted, the field was randomly moved and all cross-sectional tubules counted in that field. This was continuing until the 10-20 tubules were counted per slide. […]

GDNF = test: Western blot of GDNF expression in whole testis lysates; format: in vivo, mouse; settings: 5 weeks after busulfan vs PBS
Source text: Testes harvested from vehicle or busulfan treated-wild type mice were homogenized in RIPA buffer and protein concentration quantified by the BioRad DC Protein Assay. Twenty-five ug of protein per sample were separated by SDS-PAGE, probed with anti-GDNF rabbit polyclonal antibody (1:500; Santa Cruz, Cat: 13147) or anti-cleaved Caspase 3 rabbit polyclonal antibody (1:1000; Cell Signaling, Cat: 9664) and detected by chemiluminescence (ECL, Amersham). Blots were stripped and re-probed with β-actin as a loading control. See Supplementary material for uncropped blots.
FIG. 1. a. Quantication of Gdnf mRNA in Sertoli cells and TECs, and GDNF levels by ELISA in conditioned media from Sertoli cells or TECs without or with FGF-2 (20 ngml-1) treatment for 3 days. b. Murine GFP+Thy1.2+SSCs were co-cultured with TECs or testicular cells depleted of CD31+ TECs but containing all other cell populations in the testes. After 3 weeks, SSC colonies were absent in CD31-depleted testicular cell co-cultures with Sertoli and PTM cells present, while a signicant number of GFP+ Thy1.2+ SSC colonies were present in co-cultures with TECs alone. c. Immunouorescence staining for CD31 (for ECs) on testis sections from wildtype mice 5 weeks after vehicle or busulfan treatment. […] Quantification of MVD and vessel length is shown on the right, n=3.

SSCs [3] = test: Restoration of spermatogenesis after busulfan exposure; format: in vivo, mouse; settings: mice, no transplantation
SSCs [4] = settings: mice, no transplantation; cited from earlier work

## CS(=O)(=O)OCCCCOS(C)(=O)=O [busulfan]
TECs [1]; 72 or 96 hours
  TEC apoptosis (cleaved caspase 3): increased apoptosis
TECs [1]; 72 hours
  TEC proliferation (BrdU): decreased proliferation
TECs [2]
  microvessel density in testes sections: significant decrease
GDNF
  testis GDNF expression: global decrease
SSCs [3]
  time required for restoration of murine spermatogenesis post-busulfan treatment: 6 months
SSCs [4]
  time to restoration of spermatogenesis following exposure to busulfan: 30-36 weeks
